# In ChEMBL document CHEMBL1201862, “PubChem BioAssay data set” (2004):
#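 Results reflect a 48-hour exposure of cells in 96-well plates to compound at five concentrations. GI50 = concentration required for 50% inhibition of growth.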 Calls of active or inactive are those of the source. Rule as the data show it: active = GI50 up to about 1.1 µM and inactive = higher.
# Key:
# Experiment in all cases: DTP human tumour cell line panel, 48 h
# KM12 = test system: KM12
# NCI/ADR-RES = test system: NCI/ADR-RES
# HOP-92 = test system: HOP-92
# MDA-N = test system: MDA-N
# SK-MEL-5 = test system: SK-MEL-5
# SF-268 = test system: SF-268
# SNB-75 = test system: SNB-75
# UO-31 = test system: UO-31
# SW-620 = test system: SW-620
# HT-29 = test system: HT-29
# A498 = test system: A498
# DU-145 = test system: DU-145
# U-251 = test system: U-251
# SR = test system: SR
# SK-OV-3 = test system: SK-OV-3
# SK-MEL-28 = test system: SK-MEL-28
# Hs-578T = test system: Hs-578T
# T47D = test system: T47D
# NCI-H226 = test system: NCI-H226
# RXF 393 = test system: RXF 393
# HCT-116 = test system: HCT-116
# UACC-257 = test system: UACC-257
# TK-10 = test system: TK-10
# SF-539 = test system: SF-539
# K562 = test system: K562
# SNB-19 = test system: SNB-19
# HL-60 = test system: HL-60
# NCI-H522 = test system: NCI-H522
# SN12C = test system: SN12C
# Malme-3M = test system: Malme-3M
# HCT-15 = test system: HCT-15
# SK-MEL-2 = test system: SK-MEL-2
# 786-0 = test system: 786-0
# UACC-62 = test system: UACC-62
# OVCAR-5 = test system: OVCAR-5
# IGROV-1 = test system: IGROV-1
# RPMI-8226 = test system: RPMI-8226
# MDA-MB-435 = test system: MDA-MB-435
# HOP-62 = test system: HOP-62
# BT-549 = test system: BT-549
# LOX IMVI = test system: LOX IMVI
# MDA-MB-231 = test system: MDA-MB-231
# OVCAR-4 = test system: OVCAR-4
# A549 = test system: A549
# OVCAR-8 = test system: OVCAR-8
# CCRF-CEM = test system: CCRF-CEM
# PC-3 = test system: PC-3
# MOLT-4 = test system: MOLT-4
# EKVX = test system: EKVX
# CAKI-1 = test system: CAKI-1
# OVCAR-3 = test system: OVCAR-3
# SF-295 = test system: SF-295
# NCI-H23 = test system: NCI-H23
# MCF7 = test system: MCF7
# COLO 205 = test system: COLO 205
# HCC 2998 = test system: HCC 2998
# ACHN = test system: ACHN
# NCI-H460 = test system: NCI-H460
# M14 = test system: M14
structure (smiles),measurement,setting,value
COc1cc2cc(C(=O)N3CC(CCl)c4c3cc(NC(=O)C(C)(C)c3ccccc3[N+](=O)[O-])c3ccccc43)[nH]c2c(OC)c1OC (stereo not drawn),GI50,KM12,1.86 µM (inactive)
same,GI50,NCI/ADR-RES,1.12 µM (active)
same,GI50,HOP-92,2.38 µM (inactive)
same,GI50,MDA-N,5.12 µM (inactive)
same,GI50,SK-MEL-5,1.77 µM (inactive)
same,GI50,SF-268,1.88 µM (inactive)
same,GI50,SNB-75,3.76 µM (inactive)
same,GI50,UO-31,0.968 µM (active)
same,GI50,SW-620,1.09 µM (active)
same,GI50,HT-29,1.6 µM (inactive)
same,GI50,A498,0.78 µM (active)
same,GI50,DU-145,0.147 µM (active)
same,GI50,U-251,0.54 µM (active)
same,GI50,SR,0.192 µM (active)
same,GI50,SK-OV-3,2.75 µM (inactive)
same,GI50,SK-MEL-28,7.16 µM (inactive)
same,GI50,Hs-578T,9.33 µM (inactive)
same,GI50,T47D,4.73 µM (inactive)
same,GI50,NCI-H226,5.14 µM (inactive)
same,GI50,RXF 393,1.42 µM (inactive)
same,GI50,HCT-116,0.393 µM (active)
same,GI50,UACC-257,6.65 µM (inactive)
same,GI50,TK-10,8.87 µM (inactive)
same,GI50,SF-539,4.78 µM (inactive)
same,GI50,K562,0.991 µM (active)
same,GI50,SNB-19,4.36 µM (inactive)
same,GI50,HL-60,1.36 µM (inactive)
same,GI50,NCI-H522,1.99 µM (inactive)
same,GI50,SN12C,4.23 µM (inactive)
same,GI50,Malme-3M,7.31 µM (inactive)
same,GI50,HCT-15,1.98 µM
same,GI50,SK-MEL-2,6.93 µM (inactive)
same,GI50,786-0,1.36 µM (inactive)
same,GI50,UACC-62,3.32 µM (inactive)
same,GI50,OVCAR-5,2.77 µM (inactive)
same,GI50,IGROV-1,1.35 µM (inactive)
same,GI50,RPMI-8226,173 µM (inactive)
same,GI50,MDA-MB-435,1.75 µM (inactive)
same,GI50,HOP-62,0.187 µM (active)
same,GI50,BT-549,8.87 µM (inactive)
same,GI50,LOX IMVI,0.993 µM (active)
same,GI50,MDA-MB-231,3.03 µM (inactive)
same,GI50,OVCAR-4,3.08 µM (inactive)
same,GI50,A549,0.675 µM (active)
same,GI50,OVCAR-8,0.951 µM (active)
same,GI50,CCRF-CEM,0.13 µM (active)
same,GI50,PC-3,1.16 µM (inactive)
same,GI50,MOLT-4,1.71 µM (inactive)
same,GI50,EKVX,11.7 µM (inactive)
same,GI50,CAKI-1,0.0687 µM (active)
same,GI50,OVCAR-3,82 µM (inactive)
same,GI50,SF-295,1.67 µM (inactive)
same,GI50,NCI-H23,0.524 µM (active)
same,GI50,MCF7,0.142 µM (active)
same,GI50,COLO 205,5.43 µM (inactive)
same,GI50,HCC 2998,6.15 µM (inactive)
same,GI50,ACHN,0.385 µM (active)
same,GI50,NCI-H460,0.158 µM (active)
same,GI50,M14,1.75 µM (inactive)
O=[N+]([O-])c1ccc(Cl)c(/C=N/C23CC4CC(CC(C4)C2)C3)c1,GI50,KM12,> 9.48 µM (inactive)
same,GI50,NCI/ADR-RES,> 9.1 µM (inactive)
same,GI50,HOP-92,> 10 µM (inactive)
same,GI50,MDA-N,> 8.13 µM (inactive)
same,GI50,SK-MEL-5,3.5 µM (inactive)
same,GI50,SF-268,> 10 µM (inactive)
same,GI50,SNB-75,> 10 µM (inactive)
same,GI50,UO-31,> 10 µM (inactive)
same,GI50,SW-620,> 10 µM (inactive)
same,GI50,HT-29,> 10 µM (inactive)
same,GI50,A498,> 10 µM (inactive)
same,GI50,DU-145,> 10 µM (inactive)
same,GI50,U-251,> 7.48 µM (inactive)
same,GI50,SR,4.1 µM (inactive)
same,GI50,SK-OV-3,> 10 µM (inactive)
same,GI50,SK-MEL-28,> 10 µM (inactive)
same,GI50,Hs-578T,> 10 µM (inactive)
same,GI50,T47D,> 10 µM (inactive)
same,GI50,NCI-H226,> 10 µM (inactive)
same,GI50,RXF 393,> 10 µM (inactive)
same,GI50,HCT-116,1.2 µM (inactive)
same,GI50,UACC-257,> 10 µM (inactive)
same,GI50,TK-10,> 10 µM (inactive)
same,GI50,SF-539,5.33 µM (inactive)
same,GI50,K562,2.89 µM (inactive)
same,GI50,SNB-19,> 10 µM (inactive)
same,GI50,HL-60,2.05 µM (inactive)
same,GI50,NCI-H522,> 10 µM (inactive)
same,GI50,SN12C,> 10 µM (inactive)
same,GI50,Malme-3M,> 10 µM (inactive)
same,GI50,HCT-15,> 6.46 µM
same,GI50,SK-MEL-2,> 10 µM (inactive)
same,GI50,786-0,> 7.66 µM (inactive)
same,GI50,UACC-62,> 10 µM (inactive)
same,GI50,OVCAR-5,> 10 µM (inactive)
same,GI50,IGROV-1,> 10 µM (inactive)
same,GI50,RPMI-8226,> 6.93 µM (inactive)
same,GI50,MDA-MB-435,> 6.34 µM (inactive)
same,GI50,HOP-62,> 10 µM (inactive)
same,GI50,BT-549,> 10 µM (inactive)
same,GI50,LOX IMVI,> 9.12 µM (inactive)
same,GI50,MDA-MB-231,> 10 µM (inactive)
same,GI50,OVCAR-4,> 10 µM (inactive)
same,GI50,A549,> 10 µM (inactive)
same,GI50,OVCAR-8,4 µM (inactive)
same,GI50,CCRF-CEM,3.8 µM (inactive)
same,GI50,PC-3,> 10 µM (inactive)
same,GI50,MOLT-4,5.18 µM (inactive)
same,GI50,EKVX,> 10 µM (inactive)
same,GI50,CAKI-1,> 10 µM (inactive)
same,GI50,OVCAR-3,> 9.48 µM (inactive)
same,GI50,SF-295,> 10 µM (inactive)
same,GI50,NCI-H23,> 10 µM (inactive)
same,GI50,MCF7,3.08 µM (inactive)
same,GI50,COLO 205,> 10 µM (inactive)
same,GI50,HCC 2998,> 10 µM (inactive)
same,GI50,ACHN,> 10 µM (inactive)
same,GI50,NCI-H460,> 10 µM (inactive)
same,GI50,M14,> 6.22 µM (inactive)
